These results are taken from paper PMC12020277, “Pharmacology and macrophage modulation of HPGDS inhibitor PK007 demonstrate reduced disease severity in DMD-affected muscles of the mdx mouse model” (Skeletal Muscle, 2025).

The target in this experiment is T1, hematopoietic prostaglandin D2 synthase (HPGDS) (Homo sapiens, UniProt O60760).
T1 construct: human recombinant
Kind of experiment: fluorescence polarisation probe-displacement assay (Cayman kit #[…]), recombinant human HPGDS. The experiment is classed as binding. For orientation: Polarisation of emitted light reports the rotation of a fluorescent probe.

T1 sequence (O60760 whole entry): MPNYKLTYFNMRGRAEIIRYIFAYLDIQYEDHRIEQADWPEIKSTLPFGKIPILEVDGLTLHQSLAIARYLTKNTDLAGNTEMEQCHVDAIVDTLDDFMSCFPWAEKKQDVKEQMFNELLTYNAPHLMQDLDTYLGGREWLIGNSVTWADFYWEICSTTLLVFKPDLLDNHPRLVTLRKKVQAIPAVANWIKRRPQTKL

On to PK007, for which the half-inhibitory concentration (IC50) (as a rule, the concentration needed to halve the response being measured) came out at 1.54 ± 0.26 µM.
